From ChEMBL document CHEMBL5465560, “Selectivity Literature for EUbOPEN Chemogenomic Library” (2024)

Experiments:
[1] = molecular target: T1, Serine/threonine-protein kinase Nek1 (Homo sapiens) (UniProt Q96PY6); assay: Selectivity interaction (KinomeScan (DiscoverX)) EUB0000666a NEK1; conditions: at 10 µM
T1 sequence (whole entry): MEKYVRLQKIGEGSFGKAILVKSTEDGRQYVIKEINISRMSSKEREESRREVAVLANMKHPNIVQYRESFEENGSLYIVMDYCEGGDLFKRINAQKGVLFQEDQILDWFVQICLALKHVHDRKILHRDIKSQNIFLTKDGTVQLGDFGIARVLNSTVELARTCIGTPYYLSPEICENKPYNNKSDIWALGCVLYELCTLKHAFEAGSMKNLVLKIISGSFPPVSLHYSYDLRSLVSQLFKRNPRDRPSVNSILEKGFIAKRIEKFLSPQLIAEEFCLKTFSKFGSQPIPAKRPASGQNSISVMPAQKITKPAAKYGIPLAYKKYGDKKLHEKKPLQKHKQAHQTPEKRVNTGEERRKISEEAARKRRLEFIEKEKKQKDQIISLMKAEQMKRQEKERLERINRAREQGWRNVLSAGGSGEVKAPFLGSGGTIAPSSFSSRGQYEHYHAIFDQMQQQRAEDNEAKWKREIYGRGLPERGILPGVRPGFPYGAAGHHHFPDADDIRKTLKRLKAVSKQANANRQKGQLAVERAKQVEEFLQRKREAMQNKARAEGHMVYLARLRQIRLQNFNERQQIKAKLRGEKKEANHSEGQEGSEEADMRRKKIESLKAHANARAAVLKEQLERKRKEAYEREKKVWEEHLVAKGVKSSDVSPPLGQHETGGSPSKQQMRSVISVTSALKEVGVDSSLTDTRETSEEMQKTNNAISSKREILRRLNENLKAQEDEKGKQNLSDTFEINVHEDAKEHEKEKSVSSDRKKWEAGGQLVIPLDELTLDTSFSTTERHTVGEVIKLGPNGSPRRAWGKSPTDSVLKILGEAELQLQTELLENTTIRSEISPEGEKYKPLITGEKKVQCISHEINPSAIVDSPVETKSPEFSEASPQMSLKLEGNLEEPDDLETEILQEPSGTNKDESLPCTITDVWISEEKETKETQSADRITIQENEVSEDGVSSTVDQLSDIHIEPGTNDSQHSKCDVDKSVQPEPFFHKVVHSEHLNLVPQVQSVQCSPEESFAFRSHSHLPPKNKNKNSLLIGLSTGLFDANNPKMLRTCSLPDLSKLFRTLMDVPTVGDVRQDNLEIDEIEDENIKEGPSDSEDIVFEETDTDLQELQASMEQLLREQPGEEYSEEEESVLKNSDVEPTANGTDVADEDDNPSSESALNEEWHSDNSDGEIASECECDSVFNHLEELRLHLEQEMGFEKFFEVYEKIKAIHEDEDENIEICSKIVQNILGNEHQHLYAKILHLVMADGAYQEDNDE

[2] = molecular target: T2, Serine/threonine-protein kinase ULK3 (Homo sapiens) (UniProt Q6PHR2); assay: Selectivity interaction (KinomeScan (DiscoverX)) EUB0001550a ULK3; conditions: at 1 µM
T2 sequence (whole entry): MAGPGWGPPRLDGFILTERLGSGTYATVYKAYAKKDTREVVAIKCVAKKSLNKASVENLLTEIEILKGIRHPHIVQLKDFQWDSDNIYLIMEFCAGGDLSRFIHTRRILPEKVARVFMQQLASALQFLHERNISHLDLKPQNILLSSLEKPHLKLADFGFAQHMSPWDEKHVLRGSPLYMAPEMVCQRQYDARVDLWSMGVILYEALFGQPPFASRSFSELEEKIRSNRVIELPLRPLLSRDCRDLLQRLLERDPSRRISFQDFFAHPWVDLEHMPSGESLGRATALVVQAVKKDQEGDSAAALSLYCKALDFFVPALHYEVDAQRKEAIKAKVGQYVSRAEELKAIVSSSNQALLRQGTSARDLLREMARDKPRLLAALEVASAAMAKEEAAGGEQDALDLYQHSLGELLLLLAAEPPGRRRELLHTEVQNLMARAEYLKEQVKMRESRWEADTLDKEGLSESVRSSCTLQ

[3] = molecular target: T3, Dual specificity mitogen-activated protein kinase kinase 6 (Homo sapiens) (UniProt P52564); assay: Selectivity interaction (Kinase panel (Invitrogen)) EUB0000639a MAP2K6; conditions: at 200 nM
T3 sequence (whole entry): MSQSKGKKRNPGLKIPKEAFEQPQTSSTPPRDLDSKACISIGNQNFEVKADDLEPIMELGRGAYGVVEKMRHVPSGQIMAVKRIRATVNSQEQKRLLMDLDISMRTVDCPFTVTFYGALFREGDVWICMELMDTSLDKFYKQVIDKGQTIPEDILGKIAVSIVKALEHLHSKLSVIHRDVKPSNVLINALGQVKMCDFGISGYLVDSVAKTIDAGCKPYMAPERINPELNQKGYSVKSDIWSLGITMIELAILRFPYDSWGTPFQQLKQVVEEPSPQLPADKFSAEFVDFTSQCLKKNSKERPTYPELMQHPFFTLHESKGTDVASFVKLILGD

[4] = molecular target: cAMP-dependent protein kinase catalytic subunit alpha (Homo sapiens, UniProt P17612); assay: Selectivity interaction (KinomeScan (DiscoverX)) EUB0000618a PRKACA; conditions: at 10 µM
[5] = molecular target: T4, Serine/threonine-protein kinase tousled-like 1 (Homo sapiens) (UniProt Q9UKI8); assay: Selectivity interaction (KinomeScan (DiscoverX)) EUB0001619a TLK1; conditions: at 1 µM
T4 sequence (whole entry): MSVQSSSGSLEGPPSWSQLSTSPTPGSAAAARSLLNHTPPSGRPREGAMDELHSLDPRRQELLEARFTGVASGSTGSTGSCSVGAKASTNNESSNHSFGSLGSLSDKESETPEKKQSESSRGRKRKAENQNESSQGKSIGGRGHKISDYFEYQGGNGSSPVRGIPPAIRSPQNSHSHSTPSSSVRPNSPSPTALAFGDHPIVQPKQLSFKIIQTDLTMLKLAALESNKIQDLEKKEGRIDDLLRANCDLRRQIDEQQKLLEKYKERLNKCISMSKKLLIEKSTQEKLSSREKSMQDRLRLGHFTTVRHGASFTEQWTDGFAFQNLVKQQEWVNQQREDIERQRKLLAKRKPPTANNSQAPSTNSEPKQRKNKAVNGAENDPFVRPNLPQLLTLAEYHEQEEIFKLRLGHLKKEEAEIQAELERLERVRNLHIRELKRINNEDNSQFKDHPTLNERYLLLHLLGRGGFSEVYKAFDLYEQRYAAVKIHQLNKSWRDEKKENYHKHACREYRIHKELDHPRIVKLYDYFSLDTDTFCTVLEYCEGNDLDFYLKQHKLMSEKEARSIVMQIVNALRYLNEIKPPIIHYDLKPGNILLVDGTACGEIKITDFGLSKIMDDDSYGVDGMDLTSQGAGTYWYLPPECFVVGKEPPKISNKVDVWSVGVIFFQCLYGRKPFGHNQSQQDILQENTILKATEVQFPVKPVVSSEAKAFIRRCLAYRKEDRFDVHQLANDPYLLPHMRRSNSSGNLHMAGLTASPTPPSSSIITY

[6] = molecular target: Cyclin-dependent kinase 2 (Homo sapiens, UniProt P24941); assay: Selectivity interaction (KinomeScan (DiscoverX)) EUB0000655a CDK2; conditions: at 10 µM

O=C(NOC[C@H](O)CO)c1ccc(F)c(F)c1Nc1ccc(I)cc1F
% of control [1]: 98%

CN(C)CC#Cc1ccc2[nH]c3c(c2c1)-c1nc(N)ncc1CCC3
% of control [2]: 11%

CC[C@@H]1[C@H](F)C(=O)N[C@@H]1COc1nccc2cc(C(N)=O)c(OC)cc12 [ZIMLOVISERTIB]
% of inhibition [3]: 4.3%

O[C@H]1CC[C@H](Nc2ncc3nc(Nc4c(F)cc(F)cc4F)n([C@H]4CCOC4)c3n2)CC1
% of control [4]: 100%

N#Cc1cccc(-c2c[nH]c3ncnc(N4CCOCC4)c23)c1
% of control [5]: 99%

CN(C)CCOc1ccc(-c2nc(-c3ccncc3)c(-c3ccc4c(c3)CC/C4=N\O)[nH]2)cc1
% of control [6]: 100%
